# Laboratory results reported in US4698352A, “4-oxo-1,4-dihydronicotinic acid derivatives, salts thereof, and antibacterial agents containing the same” (Toyama Chemical Co., Ltd., priority 1982, dated 1987).
# Read-outs that look alike come from different tables or passages of the source.
# What was measured:
# Assay in all cases: Antibacterial activity (MIC), agar dilution
# Format in all cases: cell-based
# [1] = tested on: Aci. antitratus A-6; details: 20 h, Aci. antitratus A-6; 10^6 cells per ml; 37° C., 20 hours; read-out: MIC
# From the text: (§1) The amount of bacteria inoculated was 10^4 cells per plate (10^6 cells per ml).
# [2] = tested on: E. coli NIHJ JC-2; details: Escherichia coli, NIHJJC2, 20 h
# From the text: as §1
# [3] = tested on: E. coli TK-111; details: Escherichia coli, TK111, 20 h, E. coli TK-111; 10^6 cells per ml; 37° C., 20 hours; read-out: MIC
# From the text: as §1
# [4] = tested on: Ent. cloacae IID977; details: Enterobacter cloacae, IID977, 20 h, Ent. cloacae IID977; 10^6 cells per ml; 37° C., 20 hours; read-out: MIC
# From the text: as §1
# [5] = tested on: Kl. pneumoniae Y-41; details: Klebsiella pneumoniae, Y41, 10^6 cells per ml, 37° C., 20 hours, read-out: MIC
# From the text: as §1
# [6] = tested on: Kl. pneumoniae Y-50; details: Klebsiella pneumoniae, Y50, 20 h, 10^6 cells per ml, 37° C., read-out: MIC
# From the text: as §1
# [7] = tested on: Pro. mirabilis T-111; details: Proteus mirabilis, 37° C.
# From the text: as §1
# [8] = tested on: Pro. morganii T-216; details: Morganella morganii, 37° C.
# From the text: as §1
# [9] = tested on: Pro. vulgaris GN3027; details: Proteus vulgaris, GN3027, 20 h, Pro. vulgaris GN3027; 10^6 cells per ml; 37° C., 20 hours; read-out: MIC
# From the text: as §1
# [10] = tested on: Ps. aeruginosa IFO3445; details: Pseudomonas aeruginosa
# From the text: as §1
# [11] = tested on: Ps. aeruginosa S-68; details: Pseudomonas aeruginosa
# From the text: as §1
# [12] = tested on: St. aureus FDA209P; details: Staphylococcus aureus, FDA209P, 20 h, St. aureus FDA209P; 10^6 cells per ml; 37° C., 20 hours; read-out: MIC
# From the text: as §1
# [13] = tested on: E. coli TK-3*; details: Escherichia coli, 20 h, E. coli TK-3, penicillinase-producing; 10^6 cells per ml; read-out: MIC
# From the text: as §1
# (§2) * Penicillinase-producing bacteria
# [14] = tested on: Kl. pneumoniae Y-4*; details: Klebsiella pneumoniae, 20 h, Kl. pneumoniae Y-4, penicillinase-producing; 10^6 cells per ml; read-out: MIC
# From the text: as §1, §2
# [15] = tested on: Ps. aeruginosa GN3379*; details: Pseudomonas aeruginosa, Ps. aeruginosa GN3379, penicillinase-producing, 10^6 cells per ml
# From the text: as §1, §2
# [16] = tested on: St. aureus F-137*; details: Staphylococcus aureus, 20 h, St. aureus F-137, penicillinase-producing; 10^6 cells per ml; read-out: MIC
# From the text: as §1, §2
# [17] = tested on: E. coli GN5482**; details: Escherichia coli, 20 h; E. coli GN5482, cephalospolinase-producing; 10^6 cells per ml; read-out: MIC
# From the text: as §1
# (§3) ** Cephalospolinase-producing bacteria
# [18] = tested on: Pro. vulgaris GN76**; details: Proteus vulgaris, 20 h; Pro. vulgaris GN76, cephalospolinase-producing; 10^6 cells per ml; read-out: MIC
# From the text: as §1, §3
# [19] = tested on: Ps. aeruginosa GN918**; details: Pseudomonas aeruginosa, Ps. aeruginosa GN918, cephalospolinase-producing, 10^6 cells per ml
# From the text: as §1, §3
# [20] = E. coli NIHJ JC-2, 10^6 cells per ml, 37° C., 20 hours, read-out: MIC
# [21] = Ps. aeruginosa IFO3445, 10^6 cells per ml, 37° C., 20 hours, read-out: MIC
# [22] = S68, Ps. aeruginosa S-68, 10^6 cells per ml, 37° C., 20 hours, read-out: MIC
Compound,MIC [1],"MIC [2, 20]",MIC [3],MIC [4],MIC [5],MIC [6],"MIC ([7]; T111, 20 h, 10^6 cells per ml)","MIC ([8]; T216, 20 h, 10^6 cells per ml)",MIC [9],"MIC [10, 21]","MIC [11, 22]",MIC [12],MIC [13],MIC [14],"MIC ([15]; 20 h, read-out: MIC)",MIC [16],MIC [17],MIC [18],"MIC ([19]; 20 h, read-out: MIC)",also measured
COc1ccc(-c2cc(=O)c(C(=O)O)cn2-c2ccc(O)cc2C)cc1F,0.39 µg/mL,0.39 µg/mL,≤ 0.05 µg/mL,0.39 µg/mL,1.56 µg/mL,0.78 µg/mL,1.56 µg/mL,1.56 µg/mL,0.1 µg/mL,12.5 µg/mL,6.25 µg/mL,0.1 µg/mL,0.39 µg/mL,1.56 µg/mL,12.5 µg/mL,0.1 µg/mL,≤ 0.05 µg/mL,0.39 µg/mL,,"MIC ([19]; GN918, 20 h): 1.56 µg/mL"
Cc1cc(O)ccc1-n1cc(C(=O)O)c(=O)cc1C1CCCCC1 [drawing 12],0.78 µg/mL,,0.78 µg/mL,3.13 µg/mL,6.25 µg/mL,1.56 µg/mL,12.5 µg/mL,6.25 µg/mL,0.2 µg/mL,50 µg/mL,50 µg/mL,0.78 µg/mL,3.13 µg/mL,12.5 µg/mL,> 100 µg/mL,0.78 µg/mL,0.1 µg/mL,3.13 µg/mL,3.13 µg/mL,MIC [2]: 1.56 µg/mL
O=C(O)c1cn(-c2ccc(O)cc2F)c(-c2cc3ccccc3s2)cc1=O,0.1 µg/mL,0.2 µg/mL,≤ 0.05 µg/mL,0.39 µg/mL,1.56 µg/mL,0.2 µg/mL,,,≤ 0.05 µg/mL,,,≤ 0.05 µg/mL,0.39 µg/mL,1.56 µg/mL,,≤ 0.05 µg/mL,≤ 0.05 µg/mL,0.2 µg/mL,3.13 µg/mL,"MIC ([7]; T111, 10^6 cells per ml, 20 hours, read-out: MIC): 0.78 µg/mL; MIC ([8]; T216, 10^6 cells per ml, 20 hours, read-out: MIC): 0.78 µg/mL; MIC ([10]; IFO3445, 20 h): 1.56 µg/mL; MIC ([11]; S68, 20 h): 1.56 µg/mL; MIC ([15]; GN3379, 20 h): 1.56 µg/mL"
